Measurements from publication PMC7918497, “Proposed Mechanism for the Antitrypanosomal Activity of Quercetin and Myricetin Isolated from Hypericum afrum Lam.: Phytochemistry, In Vitro Testing and Modeling Studies” (Molecules, 2021).
Read-outs that look alike come from different tables or passages of the source.

Columns and labels:
[1] = tested on: L. donovani promastigotes; assay: In vitro antileishmanial assay, L. donovani promastigotes (Alamar Blue); assay type: cell-based, Leishmania donovani; conditions: for IC50: read-out: L. Donovani Promastigote IC50; for IC90: read-out: L. Donovani Promastigote IC90
Method: (§1) IC50 and IC90 values were computed from the dose–response curves using XLfit software. DFMO (difluoromethylornithine) was used as the positive control. The antiprotozoal activities of the H. afrum fractions and isolated compounds were evaluated in vitro against L. donovani promastigotes, axenic amastigotes and intracellular amastigotes in THP1 cells. The fractions and some isolated compounds were also evaluated against T. brucei trypomastigote forms.

[2] = tested on: L. donovani axenic amastigotes; assay: In vitro antileishmanial assay, L. donovani axenic amastigotes (Alamar Blue); assay type: cell-based, Leishmania donovani
Method: as §1

[3] = tested on: L. donovani intracellular amastigotes in THP1 cells; assay: In vitro antileishmanial assay, intracellular amastigotes in THP1 cells (parasite rescue and transformation assay); assay type: cell-based, Leishmania donovani
Method: as §1

[4] = General cytotoxicity against THP1 cells; assay type: cell-based, human; conditions: human, THP1 cells
[5] = tested on: Trypanosoma brucei trypomastigotes; assay: In vitro antitrypanosomal assay, T. brucei trypomastigotes (Alamar Blue); assay type: cell-based
Method: as §1

[6] = tested on: TbHK1; parameters: method as in PMID 20971104; conditions: read-out: TbHK1 inhibition IC50; cited from earlier work
[7] = tested on: THP1 cells; assay: General cytotoxicity against THP1 cells; assay type: cell-based, human; conditions: Table 1
[8] = Leishmania donovani, fractions, Table 2
[9] = Leishmania donovani, Table 2, read-out: L. Donovani Amastigote IC50
[10] = Leishmania donovani, Table 2, read-out: L. Donovani Amastigote IC90
[11] = Leishmania donovani, THP-1, Table 2, read-out: L. Donovani Amastigote/THP IC50
[12] = Leishmania donovani, THP-1, Table 2, read-out: L. Donovani Amastigote/THP IC90
[13] = Leishmania donovani, isolated compounds, Table 1, tested range 0.4–10 ug/mL
[14] = Leishmania donovani, Table 1, read-out: L. Donovani Amastigote IC50
[15] = Leishmania donovani, Table 1, read-out: L. Donovani Amastigote IC90
[16] = Leishmania donovani, THP-1, Table 1, read-out: L. Donovani Amastigote/THP1 IC50
[17] = Leishmania donovani, THP-1, Table 1, read-out: L. Donovani Amastigote/THP1 IC90
[18] = Trypanosoma brucei, isolated compounds
[19] = isolated compounds, Table 1, tested range 0.4–10 ug/mL

| Compound | IC50 ([4]; Table 1) | IC90 ([4]; Table 1) | IC50 [1, 13] | IC90 [1, 13] | IC50 [2, 14] | IC90 [2, 15] | IC50 [3, 16] | IC90 [3, 17] | IC50 [5, 18] | IC90 [5, 18] | further results |
| --- | --- | --- | --- | --- | --- | --- | --- | --- | --- | --- | --- |
| C[C@@H]1[C@H](O)[C@@H](C)/C=C/C=C/C=C/C=C/C=C/C=C/C=C/[C@H](O[C@@H]2O[C@H](C)[C@@H](O)[C@H](N)[C@@H]2O)C[C@@H]2O[C@](O)(C[C@@H](O)C[C@@H](O)[C@H](O)CC[C@@H](O)C[C@@H](O)CC(=O)O[C@H]1C)C[C@H](O)[C@H]2C(=O)O [AMB, Amphotericin, reference compound] | > 2 µM | > 2 µM |  |  |  |  |  |  |  |  | IC50 [1, 8]: 0.138 mg/L; IC90 [1, 8]: 0.188 mg/L; IC50 [2, 9]: 0.304 mg/L; IC90 [2, 10]: 0.362 mg/L; IC50 [3, 11]: 0.187 mg/L; IC90 [3, 12]: 0.264 mg/L; IC50 ([4]; Table 2): > 2 mg/L; IC90 ([4]; Table 2): > 2 mg/L |
| O=c1c(O)c(-c2ccc(O)c(O)c2)oc2cc(O)cc(O)c12 [Compound 1, quercetin] | > 10 µM | > 10 µM | > 10 µM | > 10 µM | > 10 µM | > 10 µM | > 10 µM | > 10 µM | 7.52 µM | 9.76 µM | IC50 [6]: 4.1 µM |
| O=c1c(-c2c(O)cc(O)c3c(=O)cc(-c4ccc(O)cc4)oc23)c(-c2ccc(O)cc2)oc2cc(O)cc(O)c12 [Compound 3, biapigenin] | > 10 µM | > 10 µM | > 10 µM | > 10 µM | > 10 µM | > 10 µM | > 10 µM | > 10 µM | > 10 µM | > 10 µM |  |
| O=c1c(O)c(-c2cc(O)c(O)c(O)c2)oc2cc(O)cc(O)c12 [Compound 4, myricetin] | > 10 µM | > 10 µM | > 10 µM | > 10 µM | > 10 µM | > 10 µM | > 10 µM | > 10 µM | 5.71 µM | 7.97 µM | IC50 [6]: 48.9 µM |
| O=c1c(O[C@@H]2O[C@H](CO)[C@H](O)[C@H](O)[C@H]2O)c(-c2ccc(O)c(O)c2)oc2cc(O)cc(O)c12 [Compound 5, hyperoside] | > 10 µM | > 10 µM | > 10 µM | > 10 µM | > 10 µM | > 10 µM | > 10 µM | > 10 µM | > 10 µM | > 10 µM |  |
| O=c1c(OC2OC(CO)C(O)C(O)C2O)c(-c2cc(O)c(O)c(O)c2)oc2cc(O)cc(O)c12 [Compound 6, myricetin-3-O-β-D-galactopyranoside] | > 10 µM | > 10 µM | > 10 µM | > 10 µM | > 10 µM | > 10 µM | > 10 µM | > 10 µM | > 10 µM | > 10 µM |  |
| O=c1c(O)c(-c2cc(O)c(O)c(OC3OC(CO)C(O)C(O)C3O)c2)oc2cc(O)cc(O)c12 [Compound 7, myricetin-3’-O-β-D-glucopyranoside] | > 10 µM | > 10 µM | > 10 µM | > 10 µM | > 10 µM | > 10 µM | > 10 µM | > 10 µM | > 10 µM | > 10 µM |  |
| NCCC[C@](N)(C(=O)O)C(F)F [DFMO, α-difluoromethylornithine, reference compound] |  |  |  |  |  |  |  |  |  |  | T. Brucei IC50 ([5]; fractions): 3.634 mg/L; T. Brucei IC90 ([5]; fractions): 8.804 mg/L; IC50 ([5]; isolated compounds): 3.63 µM; IC90 ([5]; isolated compounds): 8.8 µM |
| N=C(N)c1ccc(OCCCCCOc2ccc(C(=N)N)cc2)cc1 [PENT, Pentamidine, reference compound] | > 10 µM | > 10 µM |  |  |  | > 10 µM |  |  | 0.001 µM | 0.002 µM | IC50 [1, 8]: 1.48 mg/L; IC90 [1, 8]: 2.38 mg/L; IC50 [2, 9]: 9.58 mg/L; IC90 [2, 10]: > 10 mg/L; IC50 [3, 11]: 1.16 mg/L; IC90 [3, 12]: 5.59 mg/L; IC50 ([5]; Trypanosoma brucei, fractions): 0.001 mg/L; IC90 ([5]; Trypanosoma brucei, fractions): 0.002 mg/L; IC50 ([4]; Table 2): > 10 mg/L; IC90 ([4]; Table 2): > 10 mg/L |
| myricitrin [Compound 2] |  |  |  |  |  |  |  |  |  |  | IC50 [1, 19]: > 10 µM; IC90 [1, 19]: > 10 µM; IC50 ([2]; Table 1, read-out: L. Donovani Amastigote IC50): > 10 µM; IC90 ([2]; Table 1, read-out: L. Donovani Amastigote IC90): > 10 µM; IC50 ([3]; Table 1, read-out: L. Donovani Amastigote/THP1 IC50): > 10 µM; IC90 ([3]; Table 1, read-out: L. Donovani Amastigote/THP1 IC90): > 10 µM; IC50 ([5]; isolated compounds): > 10 µM; IC90 ([5]; isolated compounds): > 10 µM; IC50 [7]: > 10 µM; IC90 [7]: > 10 µM |
